Reference: patent US20060079453A1, “Hla binding peptides and their uses” (priority 2002, published 2006)
pIC50: −log10 of the molar value. No end group written: not given here.

Legend:
Test in all cases: biochemical
Type in all cases: binding
HLA-DR DRB1*0802 (DR8) = HLA-DR DRB1*0802 (DR8) (Homo sapiens, UniProt P01903+P01911, A100R/A103L/A169T/F76Y/H45Y/I96F/K41T/L162R/M171V/P40S/Q125H/Q178H/Q39Y/Q99D/R218S/R42G/S66Y/V115G/W38E)
HLA-DR DRB1*1101 (DR11) = HLA-DR DRB1*1101 (DR11) (Homo sapiens, UniProt P01903+P01911, A100R/A169T/A87E/I96F/K41T/L162R/M171V/P40S/Q125H/Q178H/Q39Y/Q99D/R42S/S66Y/T262R/V115G/W38E); details: DRB1 *1101
Chain of HLA-DR DRB1*1101 (DR11) (P01903 26-254 limits assumed, other chains not shown): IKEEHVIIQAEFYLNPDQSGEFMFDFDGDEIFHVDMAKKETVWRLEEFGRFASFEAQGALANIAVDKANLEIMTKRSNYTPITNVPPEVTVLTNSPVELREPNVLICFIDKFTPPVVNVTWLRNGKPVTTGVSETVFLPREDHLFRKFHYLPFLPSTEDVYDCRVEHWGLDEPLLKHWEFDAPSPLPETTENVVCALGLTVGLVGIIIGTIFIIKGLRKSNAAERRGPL

HLA-DR DRB1*0701 (DR7) = HLA-DR DRB1*0701 (DR7) (Homo sapiens, UniProt P01903+P01911, A100R/A102G/A103Q/D57E/D86V/E43K/F76Y/K127E/L162R/M171V/P40G/Q125H/Q99D/R33Q/R42Y/R54Q/S133A/S66F/T210M/V115G/Y107V/Y59L/Y89S); details: DRB1 *0701
HLA-DR DRB1*0301 (DR3) = HLA-DR DRB1*0301 (DR3) (Homo sapiens, UniProt P01903+P01911, A100K/A102G/A103R/A169T/F55Y/I96L/K41T/L162R/M171V/P40S/Q125H/Q178H/Q39Y/R42S/S66N/T106N/T262R/W38E/Y61H)
Chain of HLA-DR DRB1*0301 (DR3) (P01903 26-254 limits assumed, other chains not shown): as above

HLA-DR DRB4*0101 (DR53) = HLA-DR DRB4*0101 (DR53) (Homo sapiens, UniProt P01903+P13762, G164S); details: DRB4 *0101
HLA-DR DRB1*1501 (DR15) = HLA-DR DRB1*1501 (DR15) (Homo sapiens, UniProt P01903+P01911); details: DRBI *1501
HLA-DR DRB5*0101 (DR51) = HLA-DR DRB5*0101 (DR51) (Homo sapiens, UniProt P01903+Q30154); details: DRB5 *0101
HLA-DR DRB1*0405 (DR4) = HLA-DR DRB1*0405 (DR4) (Homo sapiens, UniProt P01903+P01911, A100R/A169T/D86S/F76Y/I96L/K127E/L162R/M171V/N62H/P40V/Q125Y/R42H/S133A/S149N/S66Y/V115G/V209L/W38E); details: DRB1 *0405
HLA-DR DRB1*1302 (DR13) = HLA-DR DRB1*1302 (DR13) (Homo sapiens, UniProt P01903+P01911, A100E/A169T/K41T/L162R/M171V/P40S/Q125H/Q178H/Q39Y/Q99D/R42S/S66N/T262R/V115G/W38E/Y61H); details: DRBI *1302
Chain of HLA-DR DRB1*1302 (DR13) (P01903 26-254 limits assumed, other chains not shown): as above

HLA-DR DRB3*0101 (DR52) = HLA-DR DRB3*0101 (DR52) (Homo sapiens, UniProt P01903+P79483)
HLA-DR DRB1*0401 (DR4) = HLA-DR DRB1*0401 (DR4) (Homo sapiens, UniProt P01903+P01911, A100K/A169T/F76Y/I96L/K127E/L162R/M171V/N62H/P40V/Q125Y/R42H/S133A/S149N/S66Y/V115G/V209L/W38E); details: DRB1 *0401
HLA-DR DRB1*0901 (DR9) = HLA-DR DRB1*0901 (DR9) (Homo sapiens, UniProt P01903+P01911, A100R/A103E/D57H/D86V/F55Y/F60I/F76Y/I96F/K127E/L162R/M171V/P40D/Q125H/Q99R/R33Q/R42F/S133A/S66N/T210M/V115G/W38K/Y107V/Y59G/Y89S); details: DRB1 *0901
HLA-DR DRB1*0101 (DR1) = HLA-DR DRB1*0101 (DR1) (Homo sapiens, UniProt P01903+P01911, A100R/D57E/F55L/F60I/F76Y/I96L/L162R/M171V/P40L/Q125E/R42F/V115G/Y59C); details: DRB1 *0101

Sequence	pIC50 (HLA-DR DRB1*0802 (DR8))	pIC50 (HLA-DR DRB1*1101 (DR11))	pIC50 (HLA-DR DRB1*0701 (DR7))	pIC50 (HLA-DR DRB1*0301 (DR3))	pIC50 (HLA-DR DRB4*0101 (DR53))	pIC50 (HLA-DR DRB1*1501 (DR15))	pIC50 (HLA-DR DRB5*0101 (DR51))	pIC50 (HLA-DR DRB1*0405 (DR4))	pIC50 (HLA-DR DRB1*1302 (DR13))	pIC50 (HLA-DR DRB3*0101 (DR52))	pIC50 (HLA-DR DRB1*0401 (DR4))	pIC50 (HLA-DR DRB1*0901 (DR9))	pIC50 (HLA-DR DRB1*0101 (DR1))
SNLELLRICLLLIQS	4.70	< 4.81	5.91	4.21	6.79	7.05	< 4.93	5.95	6.11	4.77	–	–	–
NSLVYGASDSNIYDL	< 4.48	< 4.81	6.53	< 4.29	5.48	6.01	< 5.02	5.91	–	4.50	6.62	< 4.23	–
RTGQIFKQTYSKFDT	4.78	5.16	7.34	4.69	6.70	6.81	7.19	7.40	7.18	4.83	5.77	–	5.81
KLSQELHKLQTYPRT	4.54	5.62	4.07	3.71	6.06	–	7.43	4.91	< 4.90	< 3.58	4.71	4.72	7.72
GSHLVEALYLVTGER	< 4.26	< 4.98	6.26	< 3.75	6.65	–	4.94	4.84	4.91	4.74	4.80	< 4.20	6.19
QCQKLLWQLNGRLEY	5.60	5.78	5.43	3.87	6.68	–	6.03	6.00	–	5.06	6.44	5.33	–
VEALYLVTGERGFFY	5.91	5.31	6.71	5.70	7.89	–	7.11	5.63	–	4.77	7.22	6.17	8.00
LYFVKVDVTGAYDTI	6.38	6.66	5.23	8.02	7.66	5.01	5.30	7.85	7.10	7.80	8.55	–	7.80
RSSNCQSQKLLWQLN	5.16	< 4.22	–	4.24	7.57	5.53	–	5.40	5.71	4.16	6.23	–	5.69
AVTIYEMLQNIFAIF	5.16	4.53	–	4.62	5.95	–	4.85	6.79	6.96	5.55	–	5.34	7.77
LFFYRKSVWSKLQSI	7.19	7.92	7.08	4.52	5.71	7.70	7.74	7.08	6.92	5.23	6.04	–	7.72
YLVCGERGFFYTDKT	< 4.26	< 4.22	4.03	4.93	4.32	< 4.59	< 4.55	< 4.52	5.99	6.21	< 4.69	–	–
